Structures are written as SMILES. Like-named read-outs stand apart in the source and are kept apart here. Bounds are passed on as bounds.

Among the data in patent publication US9416143B2, “Griseofulvin derivatives” (PIERRE FABRE MEDICAMENT, priority 2012, dated 2016) are IC50 values, retold here.

What all share (type): cell-based
Assay [1] concerns N1E115 (mouse brain neuroblastoma cell line). Briefly: Cell proliferation (ATPLite) on N1E115 line. Conditions: read 72 hours after addition. The protocol: (§1) The lines N1E115 (ATCC, CRL2263), MDA-MB-231 (ATCC, HTB26) and HSC-1 (Health Science Research Resources Bank, JCRB1015) were cultured in DMEM medium (Dulbecco's Modified Eagle Medium) supplemented with 2 mM of L-Glutamine (Sigma, G7513) and 10% foetal calf serum (Hyclone, SH30109.03) or 20% for the HSC-1 cells. The HCC-1937 (ATCC, CRL2336) and A549 (ATCC, CCL185) lines were cultured in RPMI medium (Roswell Park Memorial Institute Medium) supplemented with 10% foetal calf serum and 2 mM of L-Glutamine. Finally, the SCC114 (DSMZ, ACC662) line was cultured in MEM medium (Minimum Essential Medium Eagle) supplemented with 10% foetal calf serum and 2 mM of L-Glutamine. Initially, in 96-well plates (Perkin Elmer, 6005668), the cells were seeded in their respective culture media with 750 cells per well for N1E115; 1000 cells per well for SCC114 and A549; 2000 cells per well for HCC-1937 and HSC-1; 2500 cells per well for MDA-MB-231. Cascade dilution of each compound was performed in dimethylsulfoxide (DMSO) (Sigma, D8418) from 10 mM stock solutions in 100% DMSO. Each of the dilutions was added to the cells 24 hours after seeding. Under these conditions the final solvent concentration was 0.1% DMSO. Reading of cell proliferation was conducted 72 hours after addition of products with the ATPLite kit (Perkin Elmer, 6016947) and following the manufacturer's directions except in the case of the HCC-1937 line for which this reading was carried out 48 hours after treatment. Analysis of proliferation results was performed by comparing with conditions in which solely the vehicle was added to the cells. The dose-response curves obtained were analysed using Prism 4.03 software (GraphPad Software Inc.) to determine the concentration of each compound allowing 50% inhibition of cell proliferation (IC50).
(§2) As examples, the cytotoxic properties of some compounds of the invention evaluated on the lines A549 (lung cancer cell line), MDA-MB-231 line (mammary adenocarcinoma cell line), N1E115 (mouse brain neuroblastoma cell line), HCC-1937 line (primary ductam breast carcinoma cell line), HSC-1 (cutaneous squamous carcinoma cell line) and SCC114 line (oral squamous carcinoma cell line) are reported in Table 1, as compared with griseofulvin used as control product. The concentration values are expressed in micromolar units (μM).
(In general: ATP-based viability assays read luminescence as a measure of living cells.)

The test system of assay [2] is MDA-MB-231 line (mammary adenocarcinoma cell line). The assay can be described thus: Cell proliferation (ATPLite) on MDA-MB-231 line. Conditions: read 72 hours after addition. As for the experimental part:
as §1, §2

Assay [3] deals with SCC114 line (oral squamous carcinoma cell line). The assay can be described thus: Cell proliferation (ATPLite) on SCC114 line. Conditions: read 72 hours after addition. As for the experimental part:
as §1, §2

Assay [4] concerns HCC-1937 line (primary ductam breast carcinoma cell line). Briefly: Cell proliferation (ATPLite) on HCC-1937 line. As to conditions: read 48 hours after treatment. As for the experimental part:
as §1, §2

The test system of assay [5] is HSC-1 (cutaneous squamous carcinoma cell line). Briefly: Cell proliferation (ATPLite) on HSC-1 line. Conditions: 50% inhibition of cell proliferation, read 72 hours after addition. The protocol:
as §1, §2

In assay [6] the test system is A549 (lung cancer cell line). Briefly: Cell proliferation (ATPLite) on A549 line. As to conditions: read 72 hours after addition. The protocol:
as §1, §2

Setting [7] is: 50% inhibition of cell proliferation, read-out: IC50 (μM) N1E-115.
Where [8] appears, read: 50% inhibition of cell proliferation.
The mark [9] stands for this setting: 50% inhibition of cell proliferation, read-out: IC50 (μM) HCC1937.
Setting [10] is: Mus musculus, N1E-115, 50% inhibition of cell proliferation.
[11] abbreviates: Homo sapiens, MDA-MB-231, 50% inhibition of cell proliferation.
Where [12] appears, read: SCC114, 50% inhibition of cell proliferation.
The mark [13] stands for this setting: Homo sapiens, HCC1937, 50% inhibition of cell proliferation.
[14] abbreviates: Homo sapiens, A549, 50% inhibition of cell proliferation.

As to `COc1cc(OC)c2c(c1Cl)O[C@]1(C2=O)C2=C(C[C@H](c3ccccc3)O2)C(=O)C[C@H]1C` [compound 3, (2R,2′S,6R)-7′-chloro-4′,6′-dimethoxy-6-methyl-2-phenyl-5,6-dihydro-2H,3′H-2,7′-spirobi[benzofuran]-3′,4(3H)-dione], the half-maximal inhibitory concentration (IC50) in assay [1] (setting [7]) was 0.21 µM; in assay [2] (setting [8]), 0.45 µM; in assay [3] (setting [8]) it was 0.52 µM; in assay [4] (setting [9]), > 10 µM; in assay [5] it was 6 µM; in assay [6] (setting [8]), 0.25 µM.
For `COc1cc(OC)c2c(c1Cl)O[C@]1(C2=O)C2=C(C[C@](C)(c3ccccc3)O2)C(=O)C[C@H]1C` [compound 5, (2R,2′S,6R)-7′-chloro-4′,6′-dimethoxy-2,6-dimethyl-2-phenyl-5,6-dihydro-2H,3′H-2,7′-spirobi[benzofuran]-3′,4(3H)-dione], the half-inhibitory concentration (IC50) was 0.25 µM in assay [1] (setting [7]); 0.86 µM in assay [2] (setting [8]); 0.38 µM in assay [3] (setting [8]); > 10 µM in assay [4] (setting [9]); 0.95 µM in assay [6] (setting [8]).
As for `COc1cc(OC)c2c(c1Cl)O[C@]1(C2=O)C2=C(C[C@@](CCO)(c3ccccc3)O2)C(=O)C[C@H]1C` [compound 46, (2R,2′S,6R)-7′-chloro-2-(2-hydroxyethyl)-4′,6′-dimethoxy-6-methyl-2-phenyl-5,6-dihydro-2H,3′H-2,7′-spirobi[benzofuran]-3′,4(3H)-dione], the IC50 in assay [1] (setting [7]) was 0.22 µM; in assay [3] (setting [8]), 0.57 µM; in assay [4] (setting [9]), > 10 µM; in assay [5], 0.79 µM; in assay [6] (setting [8]), 0.86 µM.
Regarding `COc1cc(OC)c2c(c1Cl)O[C@@]1(C=C([S+]([O-])c3ccccc3)C(=O)C[C@H]1C)C2=O` (stereo partly shown) [compound 95], the concentration for half-maximal inhibition (IC50) in assay [1] (setting [7]) was 1 µM; in assay [2] (setting [8]) it was 0.54 µM; in assay [3] (setting [8]) it was 0.25 µM; in assay [4] (setting [9]), 0.43 µM; in assay [5], 0.32 µM; in assay [6] (setting [8]), 0.25 µM.
Regarding `COc1cc(OC)c2c(c1Cl)O[C@]1(C2=O)C(S(=O)(=O)Cc2ccccc2)=CC(=O)C[C@H]1C` [compound 145, (1′R,6′R)-2′-(benzylsulfonyl)-7-chloro-4,6-dimethoxy-6′-methyl-3H-spiro[benzofuran-2,1′-cyclohex[2]ene]-3,4′-dione], the concentration for half-maximal inhibition (IC50) came out at 3 µM in assay [1] (setting [7]); 2 µM in assay [2] (setting [8]); 0.385 µM in assay [3] (setting [8]); 1.4 µM in assay [4] (setting [9]); 1.4 µM in assay [5]; 1.5 µM in assay [6] (setting [8]).
With `COC(=O)C1=C[C@H](c2ccccc2)C2=C(C[C@@H](C)[C@]3(Oc4c(Cl)c(OC)cc(OC)c4C3=O)C2=O)N1` [compound 149, (2S,4′R,7′R)-methyl 7-chloro-4,6-dimethoxy-7′-methyl-3,5′-dioxo-4′-phenyl-4′,5′,7′,8′-tetrahydro-1′H,3H-spiro[benzofuran-2,6′-quinoline]-2′-carboxylate], the IC50 in assay [1] (setting [10]) is 0.21 µM; in assay [2] (setting [11]), 0.34 µM; in assay [3] (setting [12]), 0.23 µM; in assay [4] (setting [13]), > 10 µM; in assay [5], 0.72 µM; in assay [6] (setting [14]), 0.24 µM.
For `COC(=O)c1cc(-c2ccccc2)c2c(n1)C[C@@H](C)[C@]1(Oc3c(Cl)c(OC)cc(OC)c3C1=O)C2=O` [compound 152, (2S,7′R)-methyl 7-chloro-4,6-dimethoxy-7′-methyl-3,5′-dioxo-4′-phenyl-7′,8′-dihydro-3H,5′H-spiro[benzofuran-2,6′-quinoline]-2′-carboxylate], the IC50 in assay [1] (setting [10]) was 0.62 µM; in assay [2] (setting [11]), 1.6 µM; in assay [3] (setting [12]), 0.71 µM; in assay [4] (setting [13]), > 10 µM; in assay [5], 10 µM; in assay [6] (setting [14]) it was 0.48 µM.
For the compound `COc1cc(OC)c2c(c1Cl)O[C@]1(C2=O)C2=C(C[C@@H](c3ccccc3)O2)/C(=N/O)C[C@H]1C` [compound 217, (2′S,6R,E)-7′-chloro-4-(hydroxyimino)-4′,6′-dimethoxy-6-methyl-2-phenyl-3,4,5,6-tetrahydro-2H,3′H-2,7′-spirobi[benzofuran]-3′-one], the IC50 in assay [1] (setting [7]) was 0.73 µM; in assay [2] (setting [8]) it was 0.63 µM; in assay [3] (setting [8]), 0.33 µM; in assay [4] (setting [9]), > 10 µM; in assay [5], 1.3 µM; in assay [6] (setting [8]) it was 0.36 µM.
Regarding `COc1cc(OC)c2c(c1Cl)O[C@]1(C2=O)C(O)c2ccc(C)nc2C[C@H]1C` (stereo partly drawn) [compound 249, (2S,7′R)-7-chloro-5′-hydroxy-4,6-dimethoxy-2′,7′-dimethyl-7′,8′-dihydro-3H,5′H-spiro[benzofuran-2,6′-quinolin]-3-one], the half-maximal inhibitory concentration (IC50) was 0.26 µM in assay [1] (setting [10]); 0.34 µM in assay [2] (setting [11]); 0.42 µM in assay [3] (setting [12]); > 10 µM in assay [4] (setting [13]); 0.88 µM in assay [5]; 0.55 µM in assay [6] (setting [14]).
For the compound `CCc1ccc2c(n1)C[C@@H](C)[C@]1(Oc3c(Cl)c(OC)cc(OC)c3C1=O)C2O` (stereo partly drawn) [compound 250, (2 S,7′R)-7-chloro-2′-ethyl-5′-hydroxy-4,6-dimethoxy-7′-methyl-7′,8′-dihydro-3H,5′H-spiro[benzofuran-2,6′-quinolin]-3-one], the IC50 in assay [1] (setting [10]) was 1.4 µM; in assay [2] (setting [11]), 0.35 µM; in assay [3] (setting [12]) it was 0.54 µM; in assay [4] (setting [13]) it was > 10 µM; in assay [5] it was 1.9 µM; in assay [6] (setting [14]) it was 1.4 µM.
Take `COC(=O)c1cc(-c2ccccc2)c2c(n1)C[C@@H](C)[C@]1(Oc3c(Cl)c(OC)cc(OC)c3C1=O)[C@H]2O` [compound 252, (2S,5′S,7′R)-methyl 7-chloro-5′-hydroxy-4,6-dimethoxy-7′-methyl-3-oxo-4′-phenyl-7′,8′-dihydro-3H,5′H-spiro[benzofuran-2,6′-quinoline]-2′-carboxylate]: the IC50 in assay [1] (setting [10]) was 0.2 µM; in assay [2] (setting [11]) it was 0.38 µM; in assay [3] (setting [12]), 0.32 µM; in assay [4] (setting [13]), > 10 µM; in assay [5], 0.52 µM; in assay [6] (setting [14]) it was 0.25 µM.

A word on the IC50: it is the concentration needed to halve the response being measured.
